According to patent US8088605B2, “Exopolysaccharides delivery system for active molecules” (Technologies Biolactics Inc., priority 2002, dated 2012):
“Also recorded” adds a separate entry of the source.

Legend:
[1] = tested on: IEC-6 rat normal small intestine epithelial cells; assay: Survival of IEC-6 cells with 5-Fu and EPS, Alamar Blue; format: cell-based; set-up: unit not given here; details: three days exposure
Description: (§1) The in vitro toxicity of the exopolysaccharide micelles was tested by incubating the micelles with a wide range of cell lines for 4-hour, 8-hour, 72-hour and 96-hour periods. The XTT™ or Alamar Blue™ assays were used to quantify the survival rates in the presence of the exopolysaccharide micelles. The capability of the exopolysaccharide to deliver an active molecule was first tested in vitro using 5-Fluorouracil (5-Fu) as a model active molecule. […] The 5-Fu/exopolysaccharide formulation was incubated with either B16F10 (murine skin melanoma), Caco-2 (human colon adenocarcinoma) or IEC-6 (rat epithelial small intestine) cells over 72-hour to 96-hour. Vital dyes (XTT or Alamar Blue) were added to supernatants for a period of 4 hours. Absorbance values were collected and plotted to evaluate the survival rate of the cells to the treatment.
(§2) Caco-2, IEC-6 and melanocytes B16 cells were cultured in DMEM supplemented with 10% FBS. […] The cells were grown in a CO2 incubator for 4 extra days. Cell survival was assessed with XTT™ according to manufacturers recommendation. […] The data are as follows:
[NB073]. Percentages of EPS are expressed in (w/v).

[2] = tested on: Caco-2 human colon adenocarcinoma cells in proliferation; assay: Survival of Caco-2 cells in proliferation with 5-Fu and EPS, XTT; format: cell-based; details: four days exposure
Description: as §1, §2
(§3) Percentages of EPS are expressed in (w/v).

[3] = tested on: Caco-2 human colon adenocarcinoma cells differentiated; assay: Survival of differentiated Caco-2 cells with 5-Fu and EPS, XTT; format: cell-based; details: four days exposure
Description: as §1, §2, §3

[4] = tested on: B16F10 murine skin melanoma cells; assay: Survival of B16F10 cells with 5-Fu and EPS, XTT; format: cell-based; details: four days exposure
Description: as §1, §2, §3

B16 cells [5] = assay: Mice grafted i.p. with B16 cells treated with 5 FU/EPS; format: in vivo, Balb/c mice
Description: Tumor cells were trypsinized and washed 3 times with PBS. Cells (1×10E6) were injected i.p. to Balb/c mice to induce a cancer in the peritoneal cavity. […] This highlighting again that EPS are not inert and may contribute to the therapeutic index.

[6] = Fluorescein pharmacokinetic in rats, oral; format: in vivo, Wistar female rats; set-up: unit not given here; details: fluorescein 1 mg/kg oral
Description: Fluorescein (FL) pharmacolinetic on unfasten Wistar female rats of 200 g and 8 weeks of age. Fluorescein concentration is 1 mg/kg. […] Fluorescein is added to the latter solutions and vortexed. Formulations are fed to the animals with a canula. 200 μl blood samples are collected through the jugular vein every 30 minutes for 2.5 hours. A final bleeding is made at 3.5 h. Plasma are collected immediately after centrifugation (10 min @ 1300 g). Plasma are frozen on dry ice until further analysis: 50 μl of plasma are diluted in 550 μl of saline 0.7% (w/v) and analyzed with a Varian Eclipse Spectrofluorometer (Excitation: 495 nm Emission: 515 nm). Concentrations were determined on a fluorescein standard curve (FL diluted in saline 0.7% and 50 μl of normal serum as in the sample analysis).

B16 cells [7] = assay: Intramuscular B16 tumor formation after i.m. injection of paclitaxel-treated cells; format: in vivo; details: mice with tumor / mice in group; cells treated 3 hrs before i.m. injection
Description: (§4) Cells (50000 cells per 50 μl injections) for a concentration of 10^6 cells per ml. The remaining of the test was performed as follows: • Cells from 1XT75 (80% confluence) are trypsinized with 2 ml trypsin, diluted in 12 ml media, spun down, rinsed once in 5 ml PBS, and resuspended in 2 ml PBS. Cells are then counted and concentration adjusted to 10^6 cells per ml. • P1 treatment: Add 200 μl P1 stock and […] of cell suspension (10^6 cells) and incubate at room temperature 3 hrs. Final Paclitaxel=1 mM, DMSO=1%. • P2 treatment: Add 200 μl P2 stock to 1.8 ml of cell suspension (10^6 cells) and incubate at room temperature 3 hrs. […] No growth was observed from either group after 2 weeks in culture.

B16 cells [8] = assay: Growth in tissue culture of paclitaxel-treated B16 cells; format: cell-based; details: replated after treatment, 2 weeks in culture
Description: as §4

[9] = Rhodamine 123 pharmacokinetic in rats, oral; format: in vivo, Wistar female rats; details: 5 mg/kg oral
Description: The pharmacokinetic of Rhodamine 123 (R123) was performed on unfasten Wistar female rats of 200 g and 8 weeks of age. Rhodamine concentration is 5 mg/kg. […] Rhodamine is added to the latter solutions and vortexed. Formulations are fed to the animals with a canula and 200 μl blood samples are collected through the jugular vein every hour for 4 hours (plus 1 sample at 0.5 h). Plasma are collected immediately after centrifugation (10 min @ 13000 g). Plasma are frozen on dry ice until further analysis: 50 μl of plasma are diluted in 550 μl of saline 0.7% (w/v) and analyzed with a Varian Eclipse™ Spectrofluorometer (Excitation: 505 nm Emission: 540 nm). Concentrations were determined on a Rhodamine 123 standard curve (R123 diluted in saline 0.7% and 50 μl of normal serum as in the sample analysis).

O=c1[nH]cc(F)c(=O)[nH]1 [5-Fu alone, 5-Fluorouracil]
Survival of IEC-6 cells ([1]; Table 5, 5-Fu 5 μg/ml): 16.9 ± 6.4
Survival of IEC-6 cells ([1]; Table 5, 5-Fu 50 μg/ml): 28.0 ± 4.6
Survival of IEC-6 cells ([1]; Table 5, 5-Fu 250 μg/ml): 35.4 ± 8.2
Survival of IEC-6 cells ([1]; Table 5, 5-Fu 500 μg/ml): 33.4 ± 3.5
Survival of IEC-6 cells ([1]; Table 6, 5-Fu 1 μg/ml): 78.0 ± 3.0
Survival of IEC-6 cells ([1]; Table 6, 5-Fu 10 μg/ml): 75.4 ± 2.9
Survival of IEC-6 cells ([1]; Table 6, 5-Fu 50 μg/ml): 81.8 ± 2.1
Survival of IEC-6 cells ([1]; Table 6, 5-Fu 100 μg/ml): 80.2 ± 0.9
Survival of Caco-2 cells in proliferation ([2]; 5-Fu 1 μg/ml): 74.1 ± 1.9
Survival of Caco-2 cells in proliferation ([2]; 5-Fu 10 μg/ml): 78.6 ± 2.4
Survival of Caco-2 cells in proliferation ([2]; 5-Fu 50 μg/ml): 80.3 ± 1.8
Survival of Caco-2 cells in proliferation ([2]; 5-Fu 100 μg/ml): 52.6 ± 4.8
Survival of Caco-2 cells differentiated ([3]; 5-Fu 1 μg/ml): 105.7 ± 4.2
Survival of Caco-2 cells differentiated ([3]; 5-Fu 10 μg/ml): 85.6 ± 8.8
Survival of Caco-2 cells differentiated ([3]; 5-Fu 50 μg/ml): 99.6 ± 6.8
Survival of Caco-2 cells differentiated ([3]; 5-Fu 100 μg/ml): 78.1 ± 0.7
Survival of B16F10 cells ([4]; 5-Fu 1 μg/ml): 62.6 ± 6.6
Survival of B16F10 cells ([4]; 5-Fu 10 μg/ml): 65.4 ± 10.4
Survival of B16F10 cells ([4]; 5-Fu 50 μg/ml): 54.9 ± 8.9
Survival of B16F10 cells ([4]; 5-Fu 100 μg/ml): 38.8 ± 8.5
Tumor-free mice (B16 cells [5]; day 0): 100%
Tumor-free mice (B16 cells [5]; day 15, 5 FU 100 mg/kg, EPS 0.1% w/v, treatment after 4 days): 62.5%
Tumor-free mice (B16 cells [5]; day 29, 5 FU 100 mg/kg, EPS 0.1% w/v, treatment after 4 days): 12.5%
Tumor-free mice (B16 cells [5]; day 44, 5 FU 100 mg/kg, EPS 0.1% w/v, treatment after 4 days): 12.5%

O=C1OC2(c3ccc(O)cc3Oc3cc(O)ccc32)c2ccccc21 [FL-Water, Fluorescein]
Fluorescein concentration in plasma ([6]; time 0.0 h): 37.10
Fluorescein concentration in plasma ([6]; time 0.5 h): 218.30
Fluorescein concentration in plasma ([6]; time 1.0 h): 145.95
Fluorescein concentration in plasma ([6]; time 1.5 h): 75.25
Fluorescein concentration in plasma ([6]; time 2.0 h): 74.48
Fluorescein concentration in plasma ([6]; time 2.5 h): 71.74
Fluorescein concentration in plasma ([6]; time 3.5 h): 54.63

CC(=O)O[C@H]1C(=O)[C@@]2(C)[C@H]([C@H](OC(=O)c3ccccc3)[C@]3(O)C[C@H](OC(=O)[C@H](O)[C@@H](NC(=O)c4ccccc4)c4ccccc4)C(C)=C1C3(C)C)[C@]1(OC(C)=O)CO[C@@H]1C[C@@H]2O [P1, Paclitaxel]
Intramuscular tumor formation (B16 cells [7]): 12/15
Growth in tissue culture (B16 cells [8]): No growth; also recorded: negative

Rhodamine 123 [R123 - Water]
Rhodamine 123's concentration in plasma ([9]; time 0.0 h): 2.2 ± 2.2 ng/mL
Rhodamine 123's concentration in plasma ([9]; time 0.5 h): 20.4 ± 2.2 ng/mL
Rhodamine 123's concentration in plasma ([9]; time 1.0 h): 20.9 ± 2.6 ng/mL
Rhodamine 123's concentration in plasma ([9]; time 2.0 h): 15.4 ± 2.0 ng/mL
Rhodamine 123's concentration in plasma ([9]; time 3.0 h): 10.9 ± 1.4 ng/mL
Rhodamine 123's concentration in plasma ([9]; time 4.0 h): 11.2 ± 1.8 ng/mL
